Measured values published in patent US20020177621A1, “Antifungal fragrance composition” (priority 2000, published 2002).
Values joined by “and” are separate entries in the source; they are usually repeats but may differ in a detail not shown here. Equal entries are not always repeated. “Also recorded” adds a separate entry of the source.

Tests used:
Type in all cases: cell-based
[1] = system: Aureobasidium pullulans IFO 6353 (Ap-1); experiment: Fragrant vapor antifungal activity (impregnated paper disc on cover of inverted agar plate); conditions: 72 hours at 27° C.; for IZ: Diameter of growth inhibition zone: 20 μl fragrance (or 40 μl of 50% ethanol solution) on disc, >85 = growth inhibited over entire plate; for Growth: Growth status outside the inhibition zone / SI: Diameter of spore formation inhibition zone: 20 μl fragrance on disc; for Growth: Growth status outside the inhibition zone: compared with control
Procedure: (§1) Physiological saline containing 0.05% Tween-80 was added to a slant on which the test organism grew well, and a spore suspension was produced at 1×10^6 CFU (Colony Forming Units)/ml in accordance with ordinary methods. Potato dextrose agar (PDA: Nissui Pharmaceutical) was used for the medium. To begin with, 10 ml of sterile PDA was pipetted into a Petri dish and after it solidified, another 6 ml of PDA containing 1% of the above described spore suspension was overlaid and solidified to prepare the test agar plate. For the fragrance sample, if the sample is in the form of liquid at ordinary temperatures, 20 μl of liquid was directly impregnated into a paper disc (Advantech, diameter: 8 mm, thick material), while a 50% by weight ethanol solution was prepared for crystals or powder, and 40 μl of that solution was then impregnated into the paper disc.
(§2) The test agar plate was placed inversely, and the paper disc impregnated with the fragrance sample was placed in the center of the cover of the agar plate, followed by incubating for 72 hours at 27° C. Evaluation was made based on the diameter (mm) of the mold growth inhibition zone. When mold growth was inhibited over the entire surface of the agar plate, the diameter of the growth inhibition zone was reported as >85 mm. At locations where mold grew outside the inhibition zone, the diameter of the spore formation inhibition zone and the degree of growth were recorded by comparing with a control. The molds used in the test are shown in Table 1, wherein these molds consist of mold species that are isolated at high frequencies from rooms and bath rooms.
(§3) The amount of blended fragrance added to the paper discs was 20 μl each, and only the diameter of the inhibition zone (mm) is indicated for the results.

[2] = system: Cladosporium cladosporioides IFO 6348 (Cc-1); experiment: as above; conditions: 72 hours at 27° C.; for IZ: Diameter of growth inhibition zone: 20 μl fragrance (or 40 μl of 50% ethanol solution) on disc, >85 = growth inhibited over entire plate; for Growth: Growth status outside the inhibition zone: compared with control
Procedure: as §1, §2, §3

[3] = system: Aspergillus niger IFO 9455 (An-1); experiment: as above; conditions: 72 hours at 27° C.; for IZ: Diameter of growth inhibition zone: 20 μl fragrance (or 40 μl of 50% ethanol solution) on disc, >85 = growth inhibited over entire plate; for Growth: Growth status outside the inhibition zone / SI: Diameter of spore formation inhibition zone: 20 μl fragrance on disc; for Growth: Growth status outside the inhibition zone: compared with control
Procedure: as §1, §2, §3

[4] = system: An-1 (Aspergillus niger); experiment: Confirmation of synergistic action of two fragrances (vapor, paper disc); conditions: for Synergistic effect: second fragrance that shows synergistic action with the fragrance component / Antagonistic effect: second fragrance that shows antagonistic action with the fragrance component / Additive effect: second fragrance that shows additive action with the fragrance component: value = combination partner; for Synergistic effect: second fragrance that shows synergistic action with the fragrance component: combined IZ 20 mm or more larger than sum of single IZ; for Antagonistic effect: second fragrance that shows antagonistic action with the fragrance component: combined IZ 20 mm or more smaller than sum of single IZ; for Additive effect: second fragrance that shows additive action with the fragrance component: combined IZ intermediate; for IZ (diameter of growth inhibition zone) / Growth (growth status outside the inhibition zone) / SI (diameter of spore formation inhibition zone): 72 hours at 27° C.; for IZ (diameter of growth inhibition zone): sample amount on disc: citral 2 μl, benzaldehyde 10 μl, dimethyl tetrahydrobenzaldehyde 20 μl, geraniol 10 μl, octyl aldehyde 20 μl, 9-decen-1-ol 0.5 μl, trans-2-undecenal 3 μl, phenylacetaldehyde 5 μl, A + B = both amounts on one disc; for Growth (growth status outside the inhibition zone): sample amounts as in Table 3 (citral 2 μl, benzaldehyde 10 μl, dimethyl tetrahydrobenzaldehyde 20 μl, geraniol 10 μl, octyl aldehyde 20 μl, 9-decen-1-ol 0.5 μl, trans-2-undecenal 3 μl, phenylacetaldehyde 5 μl; A + B = both); for SI (diameter of spore formation inhibition zone): sample amounts as in Table 3 (citral 2 μl, benzaldehyde 10 μl, dimethyl tetrahydrobenzaldehyde 20 μl, geraniol 10 μl, octyl aldehyde 20 μl, trans-2-undecenal 3 μl, phenylacetaldehyde 5 μl; A + B = both)
Procedure: An agar plate prepared according to the method of Example 1 was used while using An-1 (Aspergillus niger) for the test fungi. […] 10 μl of the ethanol containing the Table 3 prescribed amount of the fragrance was impregnated into a paper disc. The test agar plate was placed inversely, and the paper disc impregnated with each fragrance alone and a paper disc simultaneously impregnated with two types of fragrances were placed in the center of the cover, followed by incubating for 72 hours at 27° C. and measuring the diameters of the resulting growth inhibition zones.
The results obtained as in Example 2 with other combinations are shown in Tables 4 through 7 as combination examples of respective synergistic, additive and antagonistic actions for each fragrant chemical product (a). […] It should be noted that in order to make the table smaller, combinations that have already been listed once are not listed in other columns of the tables.

Compound | IZ: Diameter of growth inhibition zone [1] [mm] | Growth: Growth status outside the inhibition zone [1] | IZ: Diameter of growth inhibition zone [2] [mm] | Growth: Growth status outside the inhibition zone ([2]; 20 μl fragrance on disc) | IZ: Diameter of growth inhibition zone [3] [mm] | Growth: Growth status outside the inhibition zone [3] | Synergistic effect: second fragrance that shows synergistic action with the fragrance component [4] | Antagonistic effect: second fragrance that shows antagonistic action with the fragrance component [4] | Additive effect: second fragrance that shows additive action with the fragrance component [4] | SI: Diameter of spore formation inhibition zone [1] [mm] | SI: Diameter of spore formation inhibition zone [3] [mm] | IZ (diameter of growth inhibition zone) [4] [mm] | Growth (growth status outside the inhibition zone) [4] | SI (diameter of spore formation inhibition zone) [4] [mm] | SI: Diameter of spore formation inhibition zone ([2]; 20 μl fragrance on disc) [mm]
O=CCCc1ccccc1 [3-Phenylpropanal] | >85 | none | >85 | none | >85 | none | Citral DMA; also recorded: Citral DEA; also recorded: Citronellal; also recorded: Salicylic aldehyde, | Geraniol |  |  |  |  |  |  | 
C=CCCCCCCCCC=O [10-undecen-1-al] | >85 | sparse | >85 | sparse | >85 | none |  |  | Furfural,; also recorded: Geraniol |  |  |  |  |  | 
COc1ccc(C=O)cc1 [Anisaldehyde] | 35 |  | >85 |  | 45 |  |  |  |  | 40 | 60 |  |  |  | 
O=Cc1ccccc1 [Benzaldehyde] | >85 | none | >85 | none | >85 | none |  |  |  |  |  | 15 | slight | >85 | 
COC(/C=C/c1ccccc1)OC [Cinnamic aldehyde DMA, cinnamic aldehydodimethylacetal] | 65 | slight | 0 | good | 35 | weak |  |  |  |  | 45 |  |  |  | 
COC(C=C(C)CCC=C(C)C)OC [Citral DMA, citral dimethylacetal] | >85 | none | >85 | none | >85 | none |  |  |  |  |  |  |  |  | 
CC(C)=CCCC(C)=CC=O [Citral] | >85 | none | >85 | none | >85 | none |  |  |  |  |  | 0 | weak | 20 | 
CC(C)=CCCC(C)CC=O (stereo not drawn) [Citronellal] | >85 | sparse | >85 | sparse | 15 | weak |  |  | Thymol, and 1-Decanol, and Citronellol |  |  |  |  |  | 
CC(C)=CCCC(C)CCO (stereo not drawn) [Citronellol] | 35 | weak | 35 | weak | 35 | good | Citral DMA,; also recorded: Citral DEA, | Thymol and 9-Decen-1-ol | 1-Nonanal, and 1-Decanol, and Anisaldehyde |  | 55 |  |  |  | 
CC(C)c1ccc(C=O)cc1 [Cumin aldehyde] | >85 | none | >85 | none | >85 | none | Citral DEA; also recorded: Geraniol; also recorded: Cinnamic aldehyde DMA,; also recorded: Phenylacetaldehyde; also recorded: Decanol, Anisaldehyde,; also recorded: Citronellol |  |  |  |  |  |  |  | 
CCCCCCCCC=O [Example 1-nonanal, 1-nonanal] | >85 | sparse | >85 | sparse | 20 | weak |  |  |  |  |  |  |  |  | 
CC(C=O)Cc1ccc2c(c1)OCO2 (stereo not drawn) [Helional] | 35 | weak | 0 | weak | 10 | good |  |  |  |  | 35 |  |  |  | 
CC(C)c1cccc(=O)c(O)c1 [Hinokitiol] | 70 | good | 0 | good | 60 | good |  |  |  |  |  |  |  |  | 
CC=Cc1ccc(O)c(OC)c1 [Isoeugenol] | 35 | good | 45 | good | 30 | good |  |  |  | 40 | 50 |  |  |  | 55
COC(=O)c1ccccc1O [Methyl salicylate] | 65 | weak | 0 | good | 40 | weak |  |  |  |  |  |  |  |  | 
C=C(C)C1CC=C(C=O)CC1 (stereo not drawn) [Perill aldehyde] | >85 | none | >85 | none | >85 | none |  |  |  |  |  |  |  |  | 
C=C(C)[C@@H]1CC=C(CO)CC1 [Perilla alcohol] | 40 | slight | 45 | slight | 30 | good |  |  |  |  | 40 |  |  |  | 
O=CCc1ccccc1 [Phenylacetaldehyde] |  |  |  |  |  |  |  |  |  |  |  | 25 | good | 30 | 
Cc1ccc(C(C)C)c(O)c1 [Thymol] | >85 | sparse | >85 | sparse | 70 | weak |  |  |  |  | >85 |  |  |  | 
